# Assay: in vitro
# Settings: human, hela cells, % viability
Compound,"viability at 28.5 h, 10 µM [%]","viability at 28.5 h, 10 µM (bulk resorufin, single well) [%]"
CC(O)c1nc2ccc(Cl)cc2[nH]1 (centres unmarked) [CBK115573],102,–
CN1CCN(C(=O)C2CCN(S(=O)(=O)c3ccc4ccccc4c3)CC2)CC1 [CBK269504],88.1,–
CCCN1CC2(CCN(Cc3nccn3C)CC2)CC1C(=O)O (centres unmarked) [CBK307658],83.2,–
Cc1ccc(CN2CC[C@H]3[C@@H](C2)[C@H](c2ccsc2)CN3C(=O)c2ccc(F)cc2)cc1 [CBK285637],98.1,–
O=C(O)CN1CCN(c2ncnc3sc4c(c23)CCCC4)CC1 [CBK286836],99.5,–
CCCC/C=C/c1cncc(N2CCN(Cc3ccccn3)CC2)n1 [CBK066096],93.4,–
CC1(C)C2CCC1(CS(=O)(=O)N(Cc1ccccc1)Cc1ccccc1)C(=O)C2 (centres unmarked) [CBK266082],107,–
CC1=NNC(=O)C1Cc1ccc(F)cc1 (centres unmarked) [CBK067755],97.4,–
Cn1c(CSc2nc3sc4c(c3c(=O)[nH]2)CCCC4)nnc1SC/C=C/c1ccccc1 [CBK264428],107,–
COc1cc(/C=N\NC(=O)CN2CCN(C)CC2)cc2c1OCO2 [CBK261503],109,–
CCOC(=O)C1(c2ccccc2)CCN(C(=O)c2ccc3nc[nH]c3c2)CC1 [CBK132208],–,103
Fc1ccc(CN(Cc2ccco2)C2CCN(c3ccc4c(c3)OCO4)CC2)cc1 [CBK286197],88.7,–
CCCS(=O)(=O)Nc1nccnc1-c1ccc(Oc2ccccc2)cc1 [CBK050908],106,–
COc1ncc(-c2nccnc2NCCc2ccncc2)c(OC)n1 [CBK038074],96.7,–
COc1ccc(CC(=O)NC2CC(C)(C)Cc3c2cnn3C)cc1 (centres unmarked) [CBK282886],99,–
O=C(NNC(=O)c1cccnc1)c1ccc(NC(=O)c2ccco2)cc1 [CBK266792],111,–
COc1cccc(/C=C2\SC(=S)N(CC(=O)NNC(=O)c3ccccc3O)C2=O)c1 [CBK262202],91.1,–
Cc1c(C(=O)O)sc2ncn(CCCOc3ccc(Cl)cc3)c(=O)c12 [CBK286695],106,–
Nc1nonc1NC(=O)N/N=C/c1ccc(C(F)(F)F)cc1 [CBK261813],99.8,–
CCOC(=O)Nc1ccc2c(c1)N(C(=O)CN1CCOCC1)c1ccccc1CC2 [CBK261286C],101,–
Cc1cc(F)ccc1OC1(C(=O)O)CCN(Cc2ccoc2)CC1 [CBK307187],104,–
CN(C)CCCN(Cc1cnn(-c2ccccc2)c1)Cc1ccco1 [CBK283040],110,–

Compound,"viability at 28.5 h, 10 µM [%]","viability at 28.5 h, 10 µM (bulk resorufin, single well) [%]"
O=C(O)c1cc(C(=O)O)n(Cc2ccccc2Cl)n1 [CBK269381],88.1,–
CN1C(=O)c2cccc3c(S(=O)(=O)N4CCN(S(=O)(=O)c5ccc6c7c(cccc57)C(=O)N6C)CC4)ccc1c23 [CBK269140],98.2,–
Cc1ccc2nc(-c3ccc(NC(=O)CSc4nnc(C)s4)cc3)sc2c1 [CBK266185],92.5,–
Nc1ncc(-c2ccc3c(c2)OCO3)nc1N1CCC(C(=O)O)CC1 [CBK064074],101,–
O=S(=O)(Nc1ccc(C(O)(C(F)(F)F)C(F)(F)F)cc1)c1cccc2nsnc12 [CBK062096],108,–
CC(=O)Nc1ccc(S(=O)(=O)Oc2ccc(/C=C3\SC(=N)NC3=O)cc2Cl)cc1 [CBK265357],100,–
O=C(CCc1cccnc1)NC(Cc1ccsc1)c1nccs1 (centres unmarked) [CBK284665],99.5,–
O=C1CC(NCC2CCCO2)C(=O)N1c1ccc(N2C(=O)CC(NCC3CCCO3)C2=O)cc1 (centres unmarked) [CBK263962],89.9,–
CC(=O)N1CCC(Cn2nc(-c3ccc(F)cc3)ccc2=O)CC1 [CBK282406],101,–
N=c1n(CC(=O)c2ccc(Br)s2)c2ccccc2n1Cc1ccccc1 [CBK262482B],91.4,–
CCc1c(SCC(=O)O)nc2ccccc2c1C [CBK286928],95.8,–
Cc1ccc(Nc2nc(N3CCOCC3)nc(N3CCOCC3)n2)cc1 [CBK287732],118,–
Cn1cnnc1SCC(=O)c1cccc(C(F)(F)F)c1 [CBK067718],93.5,–
CCCOc1ccc(C(N)CC(=O)O)cc1 (centres unmarked) [CBK261360],93.5,–
Cc1nc(C)c(C(=O)NCC2CCCOC2)s1 (centres unmarked) [CBK282194],97.2,–
CC(C)n1cccc1CN[C@@H]1CCC(=O)N[C@H]1c1cccc(F)c1 [CBK282908],91.1,–
CC(C)CCNC(=O)c1ccc(N2CCN(C(=O)c3ccccc3C(F)(F)F)CC2)nn1 [CBK153222],114,–
Cc1ccc(NC(=O)c2cnc3n(c2=O)CCS3)cc1 [CBK287376],108,–
CS(=O)(=O)Nc1ccc(CNC(=O)C2(c3ccccc3)CCCC2)cc1 [CBK161525],101,–
Cc1ccc(C)c(OCC(=O)Nc2ccccc2C(=O)N2CCN(C)CC2)c1 [CBK269924],91.1,–
CCn1c(SCC(=O)O)nnc1-c1c[nH]c2ccccc12 [CBK287089],85.9,–
CCOc1ccc(NC(=O)COc2ccccc2/C=C/C(=O)O)cc1 [CBK286935],96.6,–
